Measured values published in patent publication US9469650B2, “Melampomagnolide B derivatives” (BOARD OF TRUSTEES OF THE UNIVERSITY OF ARKANSAS, priority 2013, dated 2016).

How the values were obtained:
SK-MEL-2 = experiment: panel of 60 human tumor cell lines, growth inhibition (Melanoma); conditions: SK-MEL-2
SN12C = experiment: panel of 60 human tumor cell lines, growth inhibition (Renal Cancer)
A549/ATCC = experiment: panel of 60 human tumor cell lines, growth inhibition (Non-Small Cell Lung Cancer); conditions: for Percent Growth: A549/ATCC
HCT-116 = experiment: panel of 60 human tumor cell lines, growth inhibition (Colon Cancer); conditions: for Percent Growth: HCT-116
SK-MEL-5 = experiment: panel of 60 human tumor cell lines, growth inhibition (Melanoma); conditions: for Percent Growth: 8K-MEL-5
OVCAR-3 = experiment: panel of 60 human tumor cell lines, growth inhibition (Ovarian Cancer)
T-47D = experiment: panel of 60 human tumor cell lines, growth inhibition (Breast Cancer); conditions: for Percent Growth: T-47D
MCF7 = experiment: as above; conditions: for Percent Growth: MCF7
MDA-MB-231/ATCC = experiment: as above; conditions: for Percent Growth: MDA-MB-231/ATCC
UO-31 = experiment: panel of 60 human tumor cell lines, growth inhibition (Renal Cancer)

SMILES: C=C1C(=O)O[C@H]2[C@H]1CC/C(COC(=O)CCC(=O)NCc1ccc(Cl)nc1)=C\CC[C@@]1(C)O[C@@H]21 [JVM 96]
- Percent Growth (SK-MEL-2; Log10 Concentration −4.0): −76%
- Percent Growth (SK-MEL-2; Log10 Concentration −5.0): 57%
- Percent Growth (SK-MEL-2; Log10 Concentration −6.0): 97%
- Percent Growth (SK-MEL-2; Log10 Concentration −7.0): 92%
- Percent Growth (SK-MEL-2; Log10 Concentration −8.0): 90%
- GI50 (SN12C; Homo sapiens): 12.5 µM
- CC50 (SN12C; Homo sapiens, read-out: LC50): > 100 µM
- IC (TGI) (SN12C; Homo sapiens, read-out: TGI): 40.4 µM
- Percent Growth (SN12C; Log10 Concentration −4.0): −39%
- Percent Growth (SN12C; Log10 Concentration −5.0): 59%
- Percent Growth (SN12C; Log10 Concentration −6.0): 95%
- Percent Growth (SN12C; Log10 Concentration −7.0): 100%
- Percent Growth (SN12C; Log10 Concentration −8.0): 97%
- Percent Growth (A549/ATCC; Log10 Concentration −4.0): −66%
- Percent Growth (A549/ATCC; Log10 Concentration −5.0): 83%
- Percent Growth (A549/ATCC; Log10 Concentration −6.0): 104%
- Percent Growth (A549/ATCC; Log10 Concentration −7.0): 93%
- Percent Growth (A549/ATCC; Log10 Concentration −8.0): 92%
- GI50 (A549/ATCC; Homo sapiens, A549): 16.7 µM
- CC50 (A549/ATCC; Homo sapiens, A549, read-out: LC50): 77.8 µM
- IC (TGI) (A549/ATCC; Homo sapiens, A549, read-out: TGI): 36.1 µM
- Percent Growth (HCT-116; Log10 Concentration −4.0): −100%
- Percent Growth (HCT-116; Log10 Concentration −5.0): 13%
- Percent Growth (HCT-116; Log10 Concentration −6.0): 97%
- Percent Growth (HCT-116; Log10 Concentration −7.0): 93%
- Percent Growth (HCT-116; Log10 Concentration −8.0): 97%
- GI50 (HCT-116; Homo sapiens, HCT-116, HCT-116): 3.62 µM
- CC50 (HCT-116; Homo sapiens, HCT-116, read-out: LC50): 36.2 µM
- IC (TGI) (HCT-116; Homo sapiens, HCT-116, read-out: TGI): 13.1 µM
- Percent Growth (SK-MEL-5; Log10 Concentration −4.0): −89%
- Percent Growth (SK-MEL-5; Log10 Concentration −5.0): 53%
- Percent Growth (SK-MEL-5; Log10 Concentration −7.0): 98%
- Percent Growth (SK-MEL-5; Log10 Concentration −8.0): 97%
- GI50 (SK-MEL-5; Homo sapiens, SK-MEL-5): 10.5 µM
- CC50 (SK-MEL-5; Homo sapiens, SK-MEL-5, read-out: LC50): 53.1 µM
- IC (TGI) (SK-MEL-5; Homo sapiens, SK-MEL-5, read-out: TGI): 23.7 µM
- GI50 (OVCAR-3; Homo sapiens, OVCAR-3): 4.54 µM
- CC50 (OVCAR-3; Homo sapiens, OVCAR-3, read-out: LC50): 40.3 µM
- IC (TGI) (OVCAR-3; Homo sapiens, OVCAR-3, read-out: TGI): 15.7 µM
- Percent Growth (OVCAR-3; OVCAR-3, Log10 Concentration −4.0): −98%
- Percent Growth (OVCAR-3; OVCAR-3, Log10 Concentration −5.0): 24%
- Percent Growth (OVCAR-3; OVCAR-3, Log10 Concentration −6.0): 100%
- Percent Growth (OVCAR-3; OVCAR-3, Log10 Concentration −7.0): 107%
- Percent Growth (OVCAR-3; OVCAR-3, Log10 Concentration −8.0): 96%
- GI50 (T-47D; Homo sapiens, T47D): 3.52 µM
- CC50 (T-47D; Homo sapiens, T47D, read-out: LC50): 55.9 µM
- IC (TGI) (T-47D; Homo sapiens, T47D, read-out: TGI): 14.4 µM
- Percent Growth (T-47D; Log10 Concentration −4.0): −71%
- Percent Growth (T-47D; Log10 Concentration −5.0): 13%
- Percent Growth (T-47D; Log10 Concentration −6.0): 94%
- Percent Growth (T-47D; Log10 Concentration −7.0): 100%
- Percent Growth (T-47D; Log10 Concentration −8.0): 100%
- GI50 (MCF7; Homo sapiens, MCF7, MCF7): 3.2 µM
- CC50 (MCF7; Homo sapiens, MCF7, read-out: LC50): 58.9 µM
- IC (TGI) (MCF7; Homo sapiens, MCF7, read-out: TGI): 13.6 µM
- Percent Growth (MCF7; Log10 Concentration −4.0): −68%
- Percent Growth (MCF7; Log10 Concentration −5.0): 10%
- Percent Growth (MCF7; Log10 Concentration −6.0): 90%
- Percent Growth (MCF7; Log10 Concentration −7.0): 89%
- Percent Growth (MCF7; Log10 Concentration −8.0): 90%
- GI50 (MDA-MB-231/ATCC; Homo sapiens, MDA-MB-231): 6.19 µM
- CC50 (MDA-MB-231/ATCC; Homo sapiens, MDA-MB-231, read-out: LC50): 61.5 µM
- IC (TGI) (MDA-MB-231/ATCC; Homo sapiens, MDA-MB-231, read-out: TGI): 22.2 µM
- Percent Growth (MDA-MB-231/ATCC; Log10 Concentration −4.0): −74%
- Percent Growth (MDA-MB-231/ATCC; Log10 Concentration −5.0): 39%
- Percent Growth (MDA-MB-231/ATCC; Log10 Concentration −6.0): 91%
- Percent Growth (MDA-MB-231/ATCC; Log10 Concentration −7.0): 96%
- Percent Growth (MDA-MB-231/ATCC; Log10 Concentration −8.0): 97%
- GI50 (UO-31; Homo sapiens, UO-31): 10.2 µM
- CC50 (UO-31; Homo sapiens, UO-31, read-out: LC50): 53.7 µM
- IC (TGI) (UO-31; Homo sapiens, UO-31, read-out: TGI): 23.4 µM
- Percent Growth (UO-31; UO-31, Log10 Concentration −4.0): −87%
- Percent Growth (UO-31; UO-31, Log10 Concentration −5.0): 51%
- Percent Growth (UO-31; UO-31, Log10 Concentration −6.0): 92%
- Percent Growth (UO-31; UO-31, Log10 Concentration −7.0): 88%
- Percent Growth (UO-31; UO-31, Log10 Concentration −8.0): 87%
